How the values were obtained:
Assay in all cases: KINOMEscan
Assay type in all cases: binding
PIK3CA (E545A) = molecular target: T1, PIK3CA (E545A) (Homo sapiens, UniProt P42336, E545A)
T1 construct: purchased Eurofins DiscoverX KINOMEscan
Summary of the method: (§1)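 Active-site competition format. Unbound kinase fraction measured by affinity-ligand capture plus qPCR after 1 h at RT. Kd from 12-point half-log titration, maximum 33 μM.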

CDK5 = molecular target: T2, CDK5 (Homo sapiens, UniProt Q00535)
T2 construct: purchased Eurofins DiscoverX KINOMEscan
Summary of the method: as §1

FER = molecular target: T3, FER (Homo sapiens, UniProt P16591)
T3 construct: purchased Eurofins DiscoverX KINOMEscan
T3 sequence (P16591 whole entry): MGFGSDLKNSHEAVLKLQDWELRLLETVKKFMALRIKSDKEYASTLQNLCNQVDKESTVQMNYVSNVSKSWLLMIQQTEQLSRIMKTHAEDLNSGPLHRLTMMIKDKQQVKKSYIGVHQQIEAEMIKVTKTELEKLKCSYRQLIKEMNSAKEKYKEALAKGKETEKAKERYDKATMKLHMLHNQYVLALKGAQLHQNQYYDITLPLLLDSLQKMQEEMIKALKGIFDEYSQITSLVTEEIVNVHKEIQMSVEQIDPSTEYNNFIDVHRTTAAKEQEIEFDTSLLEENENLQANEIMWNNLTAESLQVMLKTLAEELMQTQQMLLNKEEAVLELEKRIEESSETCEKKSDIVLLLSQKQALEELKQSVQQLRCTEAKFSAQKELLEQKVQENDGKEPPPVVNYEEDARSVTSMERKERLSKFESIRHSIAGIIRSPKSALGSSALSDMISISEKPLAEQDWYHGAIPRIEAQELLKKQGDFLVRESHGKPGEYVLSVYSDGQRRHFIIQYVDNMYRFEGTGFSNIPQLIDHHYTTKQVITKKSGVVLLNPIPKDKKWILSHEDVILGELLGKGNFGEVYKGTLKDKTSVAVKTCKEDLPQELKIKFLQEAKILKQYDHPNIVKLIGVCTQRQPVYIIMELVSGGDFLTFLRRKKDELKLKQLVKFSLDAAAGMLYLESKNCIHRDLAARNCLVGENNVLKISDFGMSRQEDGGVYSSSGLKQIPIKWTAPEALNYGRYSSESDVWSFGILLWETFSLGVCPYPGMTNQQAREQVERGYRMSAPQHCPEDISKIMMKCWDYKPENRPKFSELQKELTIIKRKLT
Summary of the method: as §1

JAK1 (JH1domain-cat.) = molecular target: T4, JAK1 (JH1domain-cat.) (Homo sapiens, UniProt P23458)
T4 construct: JAK1 (JH1domain-cat.); purchased Eurofins DiscoverX KINOMEscan
T4 sequence (P23458 866-1154 limits assumed): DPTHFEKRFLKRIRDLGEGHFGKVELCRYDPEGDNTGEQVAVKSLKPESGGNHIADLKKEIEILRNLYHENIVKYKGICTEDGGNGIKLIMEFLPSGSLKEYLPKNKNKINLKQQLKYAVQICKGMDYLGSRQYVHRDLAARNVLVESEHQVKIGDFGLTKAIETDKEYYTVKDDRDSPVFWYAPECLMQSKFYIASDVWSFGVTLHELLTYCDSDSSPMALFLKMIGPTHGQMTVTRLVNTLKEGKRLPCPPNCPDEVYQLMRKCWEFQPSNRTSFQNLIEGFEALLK
Summary of the method: (§2)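 A 12-point half-log dilution series topping at 33 μM defined each Kd. The kinase fraction escaping compound binding over 1 h at room temperature was trapped by an immobilized affinity ligand and measured by quantitative PCR.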

KIT-autoinhibited = molecular target: T5, KIT-autoinhibited (Homo sapiens, UniProt P10721)
T5 construct: purchased Eurofins DiscoverX KINOMEscan
Summary of the method: as §2

NEK6 = molecular target: T6, NEK6 (Homo sapiens, UniProt Q9HC98)
T6 construct: purchased Eurofins DiscoverX KINOMEscan
Summary of the method: as §1

PRKG1 = molecular target: T7, PRKG1 (Homo sapiens, UniProt Q13976)
T7 construct: purchased Eurofins DiscoverX KINOMEscan
Summary of the method: as §2

CDK9 = molecular target: T8, CDK9 (Homo sapiens, UniProt P50750)
T8 construct: purchased Eurofins DiscoverX KINOMEscan
Summary of the method: as §1

PCTK1 = molecular target: T9, PCTK1 (Homo sapiens, UniProt Q00536)
T9 construct: purchased Eurofins DiscoverX KINOMEscan
T9 sequence (Q00536 whole entry): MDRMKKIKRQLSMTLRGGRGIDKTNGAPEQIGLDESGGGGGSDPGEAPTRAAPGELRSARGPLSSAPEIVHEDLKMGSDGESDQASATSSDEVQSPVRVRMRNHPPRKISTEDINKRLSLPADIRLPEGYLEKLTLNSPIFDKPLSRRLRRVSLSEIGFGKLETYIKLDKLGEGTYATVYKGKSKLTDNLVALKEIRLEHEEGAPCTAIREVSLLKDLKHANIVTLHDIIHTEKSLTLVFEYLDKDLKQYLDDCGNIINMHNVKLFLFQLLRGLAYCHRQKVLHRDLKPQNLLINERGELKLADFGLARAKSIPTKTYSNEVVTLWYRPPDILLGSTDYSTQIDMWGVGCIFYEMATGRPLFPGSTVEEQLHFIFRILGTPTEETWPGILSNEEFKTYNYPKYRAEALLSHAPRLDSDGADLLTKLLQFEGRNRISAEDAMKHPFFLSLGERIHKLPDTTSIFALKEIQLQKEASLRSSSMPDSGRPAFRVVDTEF
Summary of the method: as §1

MKNK2 = molecular target: T10, MKNK2 (Homo sapiens, UniProt Q9HBH9)
T10 construct: purchased Eurofins DiscoverX KINOMEscan
Summary of the method: as §2

MARK2 = molecular target: T11, MARK2 (Homo sapiens, UniProt Q7KZI7)
T11 construct: purchased Eurofins DiscoverX KINOMEscan
Summary of the method: as §1

p38-σ = molecular target: T12, p38-σ (Homo sapiens, UniProt O15264)
T12 construct: purchased Eurofins DiscoverX KINOMEscan
T12 sequence (O15264 whole entry): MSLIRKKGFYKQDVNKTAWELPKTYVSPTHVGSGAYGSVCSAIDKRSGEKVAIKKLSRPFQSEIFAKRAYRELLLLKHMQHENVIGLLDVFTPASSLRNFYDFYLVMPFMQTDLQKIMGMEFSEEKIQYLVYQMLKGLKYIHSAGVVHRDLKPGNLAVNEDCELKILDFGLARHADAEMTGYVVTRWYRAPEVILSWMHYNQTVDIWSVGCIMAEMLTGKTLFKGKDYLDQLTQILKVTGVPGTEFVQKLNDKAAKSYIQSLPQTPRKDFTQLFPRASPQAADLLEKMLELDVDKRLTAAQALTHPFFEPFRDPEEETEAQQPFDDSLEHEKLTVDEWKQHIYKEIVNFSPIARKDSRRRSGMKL
Summary of the method: as §1

MLK3 = molecular target: T13, MLK3 (Homo sapiens, UniProt Q16584)
T13 construct: purchased Eurofins DiscoverX KINOMEscan
Summary of the method: as §2

CLK3 = molecular target: T14, CLK3 (Homo sapiens, UniProt P49761)
T14 construct: purchased Eurofins DiscoverX KINOMEscan
T14 sequence (P49761 whole entry): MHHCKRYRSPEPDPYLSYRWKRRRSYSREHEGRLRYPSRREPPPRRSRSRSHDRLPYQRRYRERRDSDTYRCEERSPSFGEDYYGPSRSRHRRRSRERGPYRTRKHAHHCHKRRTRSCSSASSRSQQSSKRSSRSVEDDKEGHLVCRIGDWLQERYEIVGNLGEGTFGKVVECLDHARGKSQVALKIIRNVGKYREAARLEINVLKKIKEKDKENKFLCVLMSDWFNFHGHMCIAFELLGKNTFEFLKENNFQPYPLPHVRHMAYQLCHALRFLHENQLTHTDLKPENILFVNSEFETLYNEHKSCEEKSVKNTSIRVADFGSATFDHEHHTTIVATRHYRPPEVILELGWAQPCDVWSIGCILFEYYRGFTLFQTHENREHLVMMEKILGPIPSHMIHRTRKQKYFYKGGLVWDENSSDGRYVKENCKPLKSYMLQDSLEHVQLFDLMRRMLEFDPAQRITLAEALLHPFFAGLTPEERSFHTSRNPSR
Summary of the method: as §1

PIP5K2C = molecular target: T15, PIP5K2C (Homo sapiens, UniProt Q8TBX8)
T15 construct: purchased Eurofins DiscoverX KINOMEscan
Summary of the method: as §2

EGFR (G719S) = molecular target: T16, EGFR (G719S) (Homo sapiens, UniProt P00533, G719S)
T16 construct: purchased Eurofins DiscoverX KINOMEscan
Summary of the method: as §1

RET (M918T) = molecular target: T17, RET (M918T) (Homo sapiens, UniProt P07949, M918T)
T17 construct: purchased Eurofins DiscoverX KINOMEscan
Summary of the method: as §1

ABL1-P = molecular target: T18, ABL1-P (Homo sapiens, UniProt P00519)
T18 construct: purchased Eurofins DiscoverX KINOMEscan
Summary of the method: as §1

CDK3 = molecular target: T19, CDK3 (Homo sapiens, UniProt Q00526)
T19 construct: purchased Eurofins DiscoverX KINOMEscan
T19 sequence (Q00526 whole entry): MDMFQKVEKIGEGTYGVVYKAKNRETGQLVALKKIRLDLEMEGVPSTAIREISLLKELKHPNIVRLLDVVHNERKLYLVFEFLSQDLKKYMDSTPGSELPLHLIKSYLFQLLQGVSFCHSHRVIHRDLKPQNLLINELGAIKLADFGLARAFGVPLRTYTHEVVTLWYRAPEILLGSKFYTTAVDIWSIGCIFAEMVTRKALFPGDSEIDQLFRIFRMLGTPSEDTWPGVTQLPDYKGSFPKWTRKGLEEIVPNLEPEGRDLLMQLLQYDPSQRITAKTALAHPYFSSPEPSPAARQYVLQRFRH
Summary of the method: as §1

TYRO3 = molecular target: T20, TYRO3 (Homo sapiens, UniProt Q06418)
T20 construct: purchased Eurofins DiscoverX KINOMEscan
Summary of the method: as §1

LYN = molecular target: T21, LYN (Homo sapiens, UniProt P07948)
T21 construct: purchased Eurofins DiscoverX KINOMEscan
T21 sequence (P07948 whole entry): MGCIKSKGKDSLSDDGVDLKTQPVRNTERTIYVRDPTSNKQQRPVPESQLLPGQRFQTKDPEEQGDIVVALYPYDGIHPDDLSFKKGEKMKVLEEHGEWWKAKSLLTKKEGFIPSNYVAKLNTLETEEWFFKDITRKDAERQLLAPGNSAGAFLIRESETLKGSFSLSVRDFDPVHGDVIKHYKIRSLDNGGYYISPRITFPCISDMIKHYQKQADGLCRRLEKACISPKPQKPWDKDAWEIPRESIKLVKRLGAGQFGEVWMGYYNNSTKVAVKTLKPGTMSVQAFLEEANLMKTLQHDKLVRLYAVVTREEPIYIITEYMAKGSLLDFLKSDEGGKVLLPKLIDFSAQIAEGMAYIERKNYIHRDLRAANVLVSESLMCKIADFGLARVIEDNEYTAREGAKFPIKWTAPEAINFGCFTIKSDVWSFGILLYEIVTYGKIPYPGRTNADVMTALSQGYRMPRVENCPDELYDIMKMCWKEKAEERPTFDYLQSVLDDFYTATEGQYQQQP
Summary of the method: as §1

JNK3 = molecular target: T22, JNK3 (Homo sapiens, UniProt P53779)
T22 construct: purchased Eurofins DiscoverX KINOMEscan
Summary of the method: as §1

MAP3K4 = molecular target: T23, MAP3K4 (Homo sapiens, UniProt Q9Y6R4)
T23 construct: purchased Eurofins DiscoverX KINOMEscan
Summary of the method: as §2

TSSK3 = molecular target: T24, TSSK3 (Homo sapiens, UniProt Q96PN8)
T24 construct: purchased Eurofins DiscoverX KINOMEscan
Summary of the method: as §1

MAP4K5 = molecular target: T25, MAP4K5 (Homo sapiens, UniProt Q9Y4K4)
T25 construct: purchased Eurofins DiscoverX KINOMEscan
Summary of the method: as §1

CDC2L2 = molecular target: T26, CDC2L2 (Homo sapiens, UniProt Q9UQ88)
T26 construct: purchased Eurofins DiscoverX KINOMEscan
Summary of the method: as §1

YANK1 = molecular target: T27, YANK1 (Homo sapiens, UniProt Q8WU08)
T27 construct: purchased Eurofins DiscoverX KINOMEscan
Summary of the method: as §1

[1] = molecular target: T28, RSK3 (Kin. Dom.2-C-term.) (Homo sapiens, UniProt Q15349)
T28 construct: RSK3 (Kin. Dom.2-C-term.); purchased Eurofins DiscoverX KINOMEscan
Summary of the method: as §1

WNK1 = molecular target: T29, WNK1 (Homo sapiens, UniProt Q9H4A3)
T29 construct: purchased Eurofins DiscoverX KINOMEscan
Summary of the method: as §2

SRPK3 = molecular target: T30, SRPK3 (Homo sapiens, UniProt Q9UPE1)
T30 construct: purchased Eurofins DiscoverX KINOMEscan
T30 sequence (Q9UPE1 whole entry): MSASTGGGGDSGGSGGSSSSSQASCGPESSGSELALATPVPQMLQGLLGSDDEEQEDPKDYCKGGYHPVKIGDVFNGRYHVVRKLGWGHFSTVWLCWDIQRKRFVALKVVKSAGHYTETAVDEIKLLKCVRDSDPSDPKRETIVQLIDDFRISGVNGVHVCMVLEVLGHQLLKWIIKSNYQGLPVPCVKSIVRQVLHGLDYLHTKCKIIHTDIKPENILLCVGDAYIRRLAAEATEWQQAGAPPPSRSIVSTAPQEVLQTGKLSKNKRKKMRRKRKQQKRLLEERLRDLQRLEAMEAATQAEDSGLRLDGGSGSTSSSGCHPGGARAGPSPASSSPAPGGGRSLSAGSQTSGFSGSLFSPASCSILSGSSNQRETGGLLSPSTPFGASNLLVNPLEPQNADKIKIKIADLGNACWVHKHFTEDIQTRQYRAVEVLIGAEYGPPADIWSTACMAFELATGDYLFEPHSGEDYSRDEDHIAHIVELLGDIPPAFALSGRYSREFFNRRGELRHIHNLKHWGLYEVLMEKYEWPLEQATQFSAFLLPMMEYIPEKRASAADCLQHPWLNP
Summary of the method: as §1

TLK2 = molecular target: T31, TLK2 (Homo sapiens, UniProt Q86UE8)
T31 construct: purchased Eurofins DiscoverX KINOMEscan
T31 sequence (Q86UE8 whole entry): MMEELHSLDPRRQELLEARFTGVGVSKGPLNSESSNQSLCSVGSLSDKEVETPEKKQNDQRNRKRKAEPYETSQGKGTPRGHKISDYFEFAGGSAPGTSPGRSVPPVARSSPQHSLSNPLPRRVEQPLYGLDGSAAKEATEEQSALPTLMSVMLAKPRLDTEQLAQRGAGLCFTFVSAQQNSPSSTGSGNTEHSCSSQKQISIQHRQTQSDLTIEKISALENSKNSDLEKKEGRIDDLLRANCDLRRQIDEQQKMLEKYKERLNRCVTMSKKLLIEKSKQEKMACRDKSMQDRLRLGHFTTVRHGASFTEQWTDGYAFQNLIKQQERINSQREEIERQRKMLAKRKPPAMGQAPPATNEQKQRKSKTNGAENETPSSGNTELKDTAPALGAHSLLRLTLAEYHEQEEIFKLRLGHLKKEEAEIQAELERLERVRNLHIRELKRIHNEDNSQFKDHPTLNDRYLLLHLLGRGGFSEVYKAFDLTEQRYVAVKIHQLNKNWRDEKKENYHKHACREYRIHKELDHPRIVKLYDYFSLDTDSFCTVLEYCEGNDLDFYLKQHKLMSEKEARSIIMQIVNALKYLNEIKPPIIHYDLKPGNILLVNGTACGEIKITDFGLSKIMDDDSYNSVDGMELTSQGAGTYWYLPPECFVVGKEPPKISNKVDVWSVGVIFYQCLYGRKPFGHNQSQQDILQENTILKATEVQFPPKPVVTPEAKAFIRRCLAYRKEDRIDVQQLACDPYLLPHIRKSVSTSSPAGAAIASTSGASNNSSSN
Summary of the method: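 Quantitative PCR measured kinase retained on an immobilized affinity ligand, i.e. kinase not bound by test compound, after 1 h binding at room temperature. Kd came from 12 half-log concentrations up to 33 μM.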

SRC = molecular target: T32, SRC (Homo sapiens, UniProt P12931)
T32 construct: purchased Eurofins DiscoverX KINOMEscan
Summary of the method: as §1

[2] = molecular target: T33, RSK2 (Kin. Dom.2-C-term.) (Homo sapiens, UniProt P51812)
T33 construct: RSK2 (Kin. Dom.2-C-term.); purchased Eurofins DiscoverX KINOMEscan
Summary of the method: as §1

EPHA2 = molecular target: T34, EPHA2 (Homo sapiens, UniProt P29317)
T34 construct: purchased Eurofins DiscoverX KINOMEscan
Summary of the method: as §1

EGFR (S752-I759 del) = molecular target: T35, EGFR (S752-I759 del) (Homo sapiens, UniProt P00533, DEL752-759)
T35 construct: purchased Eurofins DiscoverX KINOMEscan
T35 sequence (P00533 with tags, fused parts or gaps DEL752-759 limits assumed): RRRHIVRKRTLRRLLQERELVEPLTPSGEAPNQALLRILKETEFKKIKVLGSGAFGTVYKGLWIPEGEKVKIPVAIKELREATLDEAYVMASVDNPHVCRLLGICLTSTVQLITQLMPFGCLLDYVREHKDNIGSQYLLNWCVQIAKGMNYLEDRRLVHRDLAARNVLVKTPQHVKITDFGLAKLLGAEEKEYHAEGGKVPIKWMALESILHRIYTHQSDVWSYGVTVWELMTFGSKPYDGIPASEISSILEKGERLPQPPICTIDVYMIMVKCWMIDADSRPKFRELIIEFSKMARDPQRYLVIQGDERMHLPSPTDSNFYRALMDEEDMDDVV
Summary of the method: as §1

TEC = molecular target: T36, TEC (Homo sapiens, UniProt P42680)
T36 construct: purchased Eurofins DiscoverX KINOMEscan
Summary of the method: as §1

EGFR = molecular target: T37, EGFR (Homo sapiens, UniProt P00533)
T37 construct: purchased Eurofins DiscoverX KINOMEscan
Summary of the method: as §1

ABL1 (Q252H)-non-P = molecular target: T38, ABL1 (Q252H)-non-P (Homo sapiens, UniProt P00519, Q252H)
T38 construct: purchased Eurofins DiscoverX KINOMEscan
Summary of the method: as §1

## O=C1Nc2c(cc([N+](=O)[O-])c3c2CCCC3)C1=NO [Compound 5d, 3-(Hydroxyimino)-5-nitro-1,3,6,7,8,9-hexahydro-2H-benzo[g]indol-2-one]
PIK3CA (E545A)
  inhibition at 10 µM: 30%
CDK5
  inhibition at 10 µM: 1%
FER
  inhibition at 10 µM: 39%
JAK1 (JH1domain-cat.)
  inhibition at 10 µM: 0%
KIT-autoinhibited
  inhibition at 10 µM: 0%
NEK6
  inhibition at 10 µM: 17%
PRKG1
  inhibition at 10 µM: 11%
CDK9
  inhibition at 10 µM: 0%
PCTK1
  inhibition at 10 µM: 5%
MKNK2
  inhibition at 10 µM: 93.2%
MARK2
  inhibition at 10 µM: 36%
p38-σ
  inhibition at 10 µM: 7%
MLK3
  inhibition at 10 µM: 31%
CLK3
  inhibition at 10 µM: 19%
PIP5K2C
  inhibition at 10 µM: 40%
EGFR (G719S)
  inhibition at 10 µM: 13%
RET (M918T)
  inhibition at 10 µM: 8%
ABL1-P
  inhibition at 10 µM: 46%
CDK3
  inhibition at 10 µM: 13%
TYRO3
  inhibition at 10 µM: 18%
LYN
  inhibition at 10 µM: 9%
JNK3
  inhibition at 10 µM: 52%
MAP3K4
  inhibition at 10 µM: 15%
TSSK3
  inhibition at 10 µM: 61%
MAP4K5
  inhibition at 10 µM: 12%
CDC2L2
  inhibition at 10 µM: 0%
YANK1
  inhibition at 10 µM: 11%
[1]
  inhibition at 10 µM: 74%
WNK1
  inhibition at 10 µM: 12%
SRPK3
  inhibition at 10 µM: 66%
TLK2
  inhibition at 10 µM: 0%
SRC
  inhibition at 10 µM: 28%
[2]
  inhibition at 10 µM: 0%
EPHA2
  inhibition at 10 µM: 19%
EGFR (S752-I759 del)
  inhibition at 10 µM: 16%
TEC
  inhibition at 10 µM: 9%
EGFR
  inhibition at 10 µM: 15%
ABL1 (Q252H)-non-P
  inhibition at 10 µM: 55%
